From publication PMC9120478 (Nature Communications, 2022)
Where a chain is given by its changes, count along the chain named. Several values for one entry are separate records, joined by “and”; a condition that tells them apart may be missing. Equal entries are not always repeated. Where two headings read alike, the source gives them in different places. Blank lines part the entries; values can stand above or below the molecule they belong to.

Tests used:
F666A mutant TRPV3 = molecular target: T1, F666A mutant TRPV3 (Mus musculus, UniProt Q8K424, F666A); assay: Fura-2 ratiometric Ca2+ uptake, inhibition of 2-APB-evoked response; type: cell-based; details: for F340/F380 change normalized to maximal value in the absence of osthole: F666A
T1 construct: expressed in transfected cells; host or cells: HEK 293 S GnTI- cells (baculovirus transduction)
T1 sequence (Q8K424 1-791 F666A): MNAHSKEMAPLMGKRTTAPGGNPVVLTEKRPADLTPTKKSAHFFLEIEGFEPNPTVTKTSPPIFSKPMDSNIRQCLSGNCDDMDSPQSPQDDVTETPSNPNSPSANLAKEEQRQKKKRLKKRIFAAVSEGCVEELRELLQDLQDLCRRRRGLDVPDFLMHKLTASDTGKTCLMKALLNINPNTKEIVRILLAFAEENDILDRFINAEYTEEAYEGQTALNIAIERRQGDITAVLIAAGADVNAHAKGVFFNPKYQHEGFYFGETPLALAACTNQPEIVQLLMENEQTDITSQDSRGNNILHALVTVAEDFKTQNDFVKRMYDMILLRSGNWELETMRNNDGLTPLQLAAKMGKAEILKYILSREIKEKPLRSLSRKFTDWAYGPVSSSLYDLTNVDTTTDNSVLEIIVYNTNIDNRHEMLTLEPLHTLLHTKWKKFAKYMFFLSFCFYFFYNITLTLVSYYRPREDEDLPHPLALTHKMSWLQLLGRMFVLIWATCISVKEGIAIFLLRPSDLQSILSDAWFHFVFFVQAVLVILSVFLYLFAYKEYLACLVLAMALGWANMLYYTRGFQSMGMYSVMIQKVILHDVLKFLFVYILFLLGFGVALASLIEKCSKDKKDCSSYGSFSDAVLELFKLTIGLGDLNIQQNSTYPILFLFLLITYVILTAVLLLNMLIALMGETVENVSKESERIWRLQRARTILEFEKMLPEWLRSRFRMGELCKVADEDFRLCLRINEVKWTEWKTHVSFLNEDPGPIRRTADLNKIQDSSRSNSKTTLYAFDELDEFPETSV
Procedure: GFP-free C-terminally strep-tagged wild-type TRPV3, TRPV3-Y564A, TRPV3-Y594A, TRPV3-F633A, TRPV3-I663W, and TRPV3-F666A were expressed in HEK 293 S GnTI^− cells as previously described[41],[42],[53]. In short, 48 h after transduction, 1-ml aliquots of cell suspension were collected by centrifugation at 550 g for 5 min using an Eppendorf 5424 centrifuge. The cells were resuspended in the pre-warmed modified HEPES-buffered saline (HBS) containing 118 mM NaCl, 4.8 mM KCl, 1 mM MgCl2, 5 mM D-glucose, and 10 mM HEPES pH 7.4 and 5 μg/ml Fura-2 AM (Thermo Fisher Scientific) and incubated for 45 min at 37 °C. The Fura-2-loaded cells were then centrifuged for 5 min at 550 g, resuspended in the pre-warmed, modified HBS and incubated again for 30 min at 37 °C in the dark. The cells were subsequently pelleted and washed twice in the modified HBS. The washed cell pellets were kept on ice in the dark before taking an aliquot for fluorescence measurements. […] We used the lower CaCl2 concentration than before[42],[28] (2.5 mM) to minimize non-specific effects, which often appeared as a drift in the Fura-2 signal at high Ca^2+ concentration, presumably due to cell death as a result of calcium overload. Fluorescence measurements were conducted using a QuantaMaster 40 spectrofluorometer (Photon Technology International) at room temperature in a quartz cuvette under constant stirring. After 60 s since the beginning, the recording was paused and 2-APB was added. After the addition of 2-APB, the recording was continued for the additional 140 s. Changes in intracellular Ca^2+ were measured by taking the ratio of fluorescence emitted at 510 nm at the excitation wavelength of 340 nm and 380 nm. […] The data were processed using Origin 9.0 (OriginLab) software.

wild-type mouse TRPV3 = molecular target: T2, wild-type mouse TRPV3 (Mus musculus, UniProt Q8K424); details: cited from earlier work; for F340/F380 change normalized to maximal value in the absence of osthole: WT, published before
T2 construct: expressed in transfected cells; host or cells: HEK 293 S GnTI- cells (baculovirus transduction)
T2 sequence (Q8K424 1-791): T1 sequence (Q8K424 1-791 F666A) with A666F

[1] = molecular target: the molecule itself; assay: cryo-EM structure; TRPV3 reconstituted in cNW30 nanodiscs with soybean lipids; 150 mM NaCl, 20 mM Tris pH 8.0, 1 mM βME, 100 μM dyclonine plus 100 μM more before freezing; C4 symmetry, 3.16 Å
[2] = osthole Conc 1, single experiments

F340/F380 change normalized to maximal value in the absence of osthole (F666A mutant TRPV3; [2]): 1.064 and 1.053 and 0.962
F340/F380 change normalized to maximal value in the absence of osthole (F666A mutant TRPV3; osthole Conc 3, single experiments): 0.8581 and 0.9473 and 0.9415
F340/F380 change normalized to maximal value in the absence of osthole (F666A mutant TRPV3; osthole Conc 10, single experiments): 0.7679 and 0.9394 and 0.7809
F340/F380 change normalized to maximal value in the absence of osthole (F666A mutant TRPV3; osthole Conc 30, single experiments): 0.5836 and 0.4944 and 0.6286
F340/F380 change normalized to maximal value in the absence of osthole (F666A mutant TRPV3; osthole Conc 100, single experiments): 0.1362 and 0.1904
IC50 (F666A mutant TRPV3; HEK 293 GnTI- cells, 200 µM 2-APB after pre-incubation with inhibitor, n = 3): 33.1 ± 3.8 µM
nHill of inhibition curve, F666A (F666A mutant TRPV3; logistic fit, n = 3): 1.37 ± 0.19
Molecule: COc1ccc2ccc(=O)oc2c1CC=C(C)C [osthole]
F340/F380 change normalized to maximal value in the absence of osthole (wild-type mouse TRPV3; [2]): 0.9502 and 0.9764 and 1.106
F340/F380 change normalized to maximal value in the absence of osthole (wild-type mouse TRPV3; osthole Conc 2.5, single experiments): 0.949 and 1.067
F340/F380 change normalized to maximal value in the absence of osthole (wild-type mouse TRPV3; osthole Conc 5, single experiments): 0.9795 and 0.8169 and 0.895
F340/F380 change normalized to maximal value in the absence of osthole (wild-type mouse TRPV3; osthole Conc 8, single experiments): 0.9193 and 0.8591 and 0.9872
F340/F380 change normalized to maximal value in the absence of osthole (wild-type mouse TRPV3; osthole Conc 12.5, single experiments): 0.6517 and 0.6914 and 0.735
F340/F380 change normalized to maximal value in the absence of osthole (wild-type mouse TRPV3; osthole Conc 18, single experiments): 0.5621 and 0.5685 and 0.5403
F340/F380 change normalized to maximal value in the absence of osthole (wild-type mouse TRPV3; osthole Conc 25, single experiments): 0.4148 and 0.5672 and 0.4994
F340/F380 change normalized to maximal value in the absence of osthole (wild-type mouse TRPV3; osthole Conc 50, single experiments): 0.161 and 0.164 and 0.15 and 0.2574
nHill of osthole inhibition curve, wild-type TRPV3 (wild-type mouse TRPV3; n = 4, published before): 1.84 ± 0.14
IC50 (wild-type mouse TRPV3; n = 4, published before, read-out: IC50, inhibition of wild-type TRPV3 by osthole): 20.5 ± 0.5 µM

B1: Mouse TRPV3 (vanilloid-subfamily member 3 TRP channel) (natural protein)
chain: AHSKEMAPLMGKRTTAPGGNPVVLTEKRPADLTPTKKSAHFFLEIEGFEPNPTVTKTSPPIFSKPMDSNIRQCLSGNCDDMDSPQSPQDDVTETPSNPNSPSANLAKEEQRQKKKRLKKRIFAAVSEGCVEELRELLQDLQDLCRRRRGLDVPDFLMHKLTASDTGKTCLMKALLNINPNTKEIVRILLAFAEENDILDRFINAEYTEEAYEGQTALNIAIERRQGDITAVLIAAGADVNAHAKGVFFNPKYQHEGFYFGETPLALAACTNQPEIVQLLMENEQTDITSQDSRGNNILHALVTVAEDFKTQNDFVKRMYDMILLRSGNWELETMRNNDGLTPLQLAAKMGKAEILKYILSREIKEKPLRSLSRKFTDWAYGPVSSSLYDLTNVDTTTDNSVLEIIVYNTNIDNRHEMLTLEPLHTLLHTKWKKFAKYMFFLSFCFYFFYNITLTLVSYYRPREDEDLPHPLALTHKMSWLQLLGRMFVLIWATCISVKEGIAIFLLRPSDLQSILSDAWFHFVFFVQAVLVILSVFLYLFAYKEYLACLVLAMALGWANMLYYTRGFQSMGMYSVMIQKVILHDVLKFLFVYILFLLGFGVALASLIEKCSKDKKDCSSYGSFSDAVLELFKLTIGLGDLNIQQNSTYPILFLFLLITYVILTFVLLLNMLIALMGETVENVSKESERIWRLQRARTILEFEKMLPEWLRSRFRMGELCKVADEDFRLCLRINEVKWTEWKTHVSFLNEDPGPIRRTADLNKIQDSSRSNSKTTLYAFDELDEFPETSV
notes: TRPV3, mouse; model built for residues 118-756, leaving out 462-470 and 611-621
stoichiometry N [1]: 4
